Patent publication US9399636B2, “Substituted dipyridylamines and uses thereof” (Genentech, Inc., priority 2012, dated 2016)

Molecular target: T1, DLK (Homo sapiens, UniProt Q12852)
T1 construct: N-terminally GST-tagged DLK (catalytic domain amino acid 1-520) (Carna Bioscience); GST (N); purchased Carna Bioscience
T1 sequence (Q12852 1-520): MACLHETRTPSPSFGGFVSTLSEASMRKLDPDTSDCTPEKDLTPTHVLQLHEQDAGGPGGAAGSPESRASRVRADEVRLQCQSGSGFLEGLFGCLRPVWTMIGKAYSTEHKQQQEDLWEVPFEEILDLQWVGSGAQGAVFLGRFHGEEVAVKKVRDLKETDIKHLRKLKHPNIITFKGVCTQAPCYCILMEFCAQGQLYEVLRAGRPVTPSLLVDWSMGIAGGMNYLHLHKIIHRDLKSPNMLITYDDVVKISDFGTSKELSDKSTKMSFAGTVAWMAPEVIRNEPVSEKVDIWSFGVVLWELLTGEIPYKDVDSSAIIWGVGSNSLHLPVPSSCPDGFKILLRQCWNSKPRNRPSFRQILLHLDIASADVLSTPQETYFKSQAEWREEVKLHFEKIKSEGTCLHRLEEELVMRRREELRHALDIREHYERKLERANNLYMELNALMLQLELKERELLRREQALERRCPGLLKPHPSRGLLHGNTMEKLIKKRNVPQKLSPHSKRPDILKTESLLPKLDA
Experiment: DLK TR-FRET assay
Type: biochemical
Conditions: 5 nM GST-tagged DLK (catalytic domain amino acid 1-520), 40 nM HIS-tagged MKK4 K131M substrate, 30 μM ATP, 60 minutes
Protocol: DLK TR-FRET assay: DLK kinase reactions (20 μL) containing 5 nM N-terminally GST-tagged DLK (catalytic domain amino acid 1-520) (Carna Bioscience), 40 nM N-terminally HIS-tagged MKK4 K131M substrate, and 30 μM ATP in kinase reaction buffer (50 mM HEPES, pH 7.5, 0.01% Triton X-100, 0.01% Bovine γ-Globulins, 2 mM DTT, 10 mM MgCl2 and 1 mM EGTA), and testing compound 1:3 serial diluted starting at 20 uM were incubated at ambient temperature for 60 minutes in 384 well OptiPlate (Perkin Elmer). To quench kinase reactions and detect phosphorylated MKK4, 15 μL of TR-FRET antibody mixture containing 2 nM anti-phosphorylated MKK4 labeled with Europium cryptate (Cisbio) and 23 nM anti-HIS labeled with D2 (Cisbio) in detection buffer (25 mM Tris pH 7.5, 100 mM NaCl, 100 mM EDTA, 0.01% Tween-20, and 200 mM KF) was added to the reaction mixture. The detection mixture was incubated for 3 hours at ambient temperature and the TR-FRET was detected with an EnVision multilabel plate reader (Perkin-Elmer) using the LANCE/DELFIA Dual Enh label from Perkin-Elmer (excitation filter: UV2 (TRF) 320 and emission filters: APC 665 and Europium 615).

Compound | Ki [nM]
COC1CN(c2cc(C3(C#N)CCNCC3)cc(Nc3cc(C(F)(F)F)ccn3)n2)C1 [Example 19, 6′-(3-Methoxy-azetidin-1-yl)-2′-(4-trifluoromethyl-pyridin-2-ylamino)-2,3,5,6-tetrahydro-1H-[4,4′]bipyridinyl-4-carbonitrile] | 5.1
FC(F)c1ccnc(Nc2cc(C3CN(CC(F)(F)F)C3)cc(Cl)n2)c1 [Example 20, {6-Chloro-4-[1-(2,2,2-trifluoro-ethyl)-azetidin-3-yl]-pyridin-2-yl}-(4-difluoromethyl-pyridin-2-yl)-amine] | 110
COc1cc(C2CCN(C(C)=O)CC2)cc(Nc2cc(C#N)ccn2)n1 [Example 21, 2-(1′-Acetyl-6-methoxy-1′,2′,3′,4′,5′,6′-hexahydro-[4,4′]bipyridinyl-2-ylamino)-isonicotinonitrile] | 12
CC(=O)N1CCC(c2cc(Nc3cc(C#N)ccn3)nc(OC(C)C)c2)CC1 [Example 22, 2-(1′-Acetyl-6-isopropoxy-1′,2′,3′,4′,5′,6′-hexahydro-[4,4′]bipyridinyl-2-ylamino)-isonicotinonitrile] | 2.2
N#CC1(c2cc(Nc3cc(C(F)(F)F)ccn3)nc(N3CC(F)C3)c2)CCNCC1 [Example 23, 6′-(3-Fluoro-azetidin-1-yl)-2′-(4-trifluoromethyl-pyridin-2-ylamino)-2,3,5,6-tetrahydro-1H-[4,4′]bipyridinyl-4-carbonitrile] | 0.32
N#Cc1ccnc(Nc2cc(C3CN(C4COC4)C3)cc(Cl)n2)c1 [Example 24, 2-[6-Chloro-4-(1-oxetan-3-yl-azetidin-3-yl)-pyridin-2-ylamino]-isonicotinonitrile] | 140
FC(F)c1ccnc(Nc2cc(C3CCN(C4COC4)CC3)cc(C3CC3)n2)c1 [Example 25, (6-Cyclopropyl-1′-oxetan-3-yl-1′,2′,3′,4′,5′,6′-hexahydro-[4,4′]bipyridinyl-2-yl)-(4-difluoromethyl-pyridin-2-yl)-amine] | 0.84
CCc1cc(C2CCN(C3COC3)CC2)cc(Nc2cc(C(F)F)ccn2)n1 [Example 26, (4-Difluoromethyl-pyridin-2-yl)-(6-ethyl-1′-oxetan-3-yl-1′,2′,3′,4′,5′,6′-hexahydro-[4,4′]bipyridinyl-2-yl)-amine] | 21
Cc1cc(C2CCN(C3COC3)CC2)cc(Nc2cc(C(F)F)ccn2)n1 [Example 27, (4-Difluoromethyl-pyridin-2-yl)-(6-methyl-1′-oxetan-3-yl-1′,2′,3′,4′,5′,6′-hexahydro-[4,4′]bipyridinyl-2-yl)-amine] | 100
N#Cc1ccnc(Nc2cc(C3CCN(C4COC4)CC3)cc(C3CC3)n2)c1 [Example 28, 2-(6-Cyclopropyl-1′-oxetan-3-yl-1′,2′,3′,4′,5′,6′-hexahydro-[4,4′]bipyridinyl-2-ylamino)-isonicotinonitrile] | 1.4
CCc1cc(C2CCN(C3COC3)CC2)cc(Nc2cc(C#N)ccn2)n1 [Example 29, 2-(6-Ethyl-1′-oxetan-3-yl-1′,2′,3′,4′,5′,6′-hexahydro-[4,4′]bipyridinyl-2-ylamino)-isonicotinonitrile] | 18
C[C@@H]1CCCN1c1cc(C2(C#N)CCN(C3COC3)CC2)cc(Nc2cc(C#N)ccn2)n1 [Example 30, 2′-(4-Cyano-pyridin-2-ylamino)-6′-((R)-2-methyl-pyrrolidin-1-yl)-1-oxetan-3-yl-2,3,5,6-tetrahydro-1H-[4,4′]bipyridinyl-4-carbonitrile] | 0.17
N#Cc1ccnc(Nc2cc(C3(C#N)CCNCC3)cc(N3CCC(F)(F)C3)n2)c1 [Example 31, 2′-(4-Cyano-pyridin-2-ylamino)-6′-(3,3-difluoro-pyrrolidin-1-yl)-2,3,5,6-tetrahydro-1H-[4,4′]bipyridinyl-4-carbonitrile] | 0.17
N#Cc1ccnc(Nc2cc(C3CN(CC(F)(F)F)C3)cc(Cl)n2)c1 [Example 32, 2-{6-Chloro-4-[1-(2,2,2-trifluoro-ethyl)-azetidin-3-yl]-pyridin-2-ylamino}-isonicotinonitrile] | 220
C[C@@H]1CCCN1c1cc(C2(C#N)CCN(C)CC2)cc(Nc2cc(C#N)ccn2)n1 [Example 33, 2′-(4-Cyano-pyridin-2-ylamino)-1-methyl-6′-((R)-2-methyl-pyrrolidin-1-yl)-2,3,5,6-tetrahydro-1H-[4,4′]bipyridinyl-4-carbonitrile] | 0.17
N#Cc1ccnc(Nc2cc(C3(C#N)CCNCC3)cc(N3CC(F)C3)n2)c1 [Example 34, 2′-(4-Cyano-pyridin-2-ylamino)-6′-(3-fluoro-azetidin-1-yl)-2,3,5,6-tetrahydro-1H-[4,4′]bipyridinyl-4-carbonitrile] | 1.9
N#Cc1ccnc(Nc2cc(C3(C#N)CCN(C4COC4)CC3)cc(N3CC4CC4C3)n2)c1 (stereo not shown) [Example 35, 6′-(3-Aza-bicyclo[3.1.0]hex-3-yl)-2′-(4-cyano-pyridin-2-ylamino)-1-oxetan-3-yl-2,3,5,6-tetrahydro-1H-[4,4′]bipyridinyl-4-carbonitrile] | 0.8
CN1CCC(C#N)(c2cc(Nc3cc(C#N)ccn3)nc(N3CC4CC4C3)c2)CC1 (stereo not shown) [Example 36, 6′-(3-Aza-bicyclo[3.1.0]hex-3-yl)-2′-(4-cyano-pyridin-2-ylamino)-1-methyl-2,3,5,6-tetrahydro-1H-[4,4′]bipyridinyl-4-carbonitrile] | 0.17
N#Cc1ccnc(Nc2cc(C3(C#N)CCNCC3)cc(N3CC(F)(F)C3)n2)c1 [Example 37, 2′-(4-Cyano-pyridin-2-ylamino)-6′-(3,3-difluoro-azetidin-1-yl)-2,3,5,6-tetrahydro-1H-[4,4′]bipyridinyl-4-carbonitrile] | 2.5
N#Cc1ccnc(Nc2cc(C3(C#N)CCNCC3)cc(N3CCC3)n2)c1 [Example 38, 6′-Azetidin-1-yl-2′-(4-cyano-pyridin-2-ylamino)-2,3,5,6-tetrahydro-1H-[4,4′]bipyridinyl-4-carbonitrile] | 2.2
C[C@@H]1CCCN1c1cc(C2(C#N)CCNCC2)cc(Nc2cc(C#N)ccn2)n1 [Example 39, 2′-(4-Cyano-pyridin-2-ylamino)-6′-((R)-2-methyl-pyrrolidin-1-yl)-2,3,5,6-tetrahydro-1H-[4,4′]bipyridinyl-4-carbonitrile] | 0.17
N#Cc1ccnc(Nc2cc(C3(C#N)CCNCC3)cc(N3CC4CC4C3)n2)c1 (stereo not shown) [Example 40, 6′-(3-Aza-bicyclo[3.1.0]hex-3-yl)-2′-(4-cyano-pyridin-2-ylamino)-2,3,5,6-tetrahydro-1H-[4,4′]bipyridinyl-4-carbonitrile] | 0.17
CC(C)(C)OC(=O)N1CC(c2cc(Cl)nc(Nc3cc(C#N)ccn3)c2)C1 [Example 41, 3-[2-Chloro-6-(4-cyano-pyridin-2-ylamino)-pyridin-4-yl]-azetidine-1-carboxylic acid tert-butyl ester] | 56
O=C1CCCN1c1cc(C2CCN(C3COC3)CC2)cc(Nc2cc(C(F)F)ccn2)n1 [Example 42, 1-[6-(4-Difluoromethyl-pyridin-2-ylamino)-1′-oxetan-3-yl-1′,2′,3′,4′,5′,6′-hexahydro-[4,4′]bipyridinyl-2-yl]-pyrrolidin-2-one] | 6.4
CCCCOc1cc(C2CCN(C3COC3)CC2)cc(Nc2cc(C(F)F)ccn2)n1 [Example 43, (6-Butoxy-1′-oxetan-3-yl-1′,2′,3′,4′,5′,6′-hexahydro-[4,4′]bipyridinyl-2-yl)-(4-difluoro-methyl-pyridin-2-yl)-amine] | 3.8
